SMILES strings stand for the structures.

The term half-life denotes how long it takes for the measured level to halve. Low values mean fast loss, high ones slow loss. One may read the Cmax as the highest concentration seen after dosing.

Series [1] relates to Lewis lung cancer mouse xenografts. On the set-up: method as in PMID 15711557, PMID 16166276. Particulars: transplanted Lewis lung cancer mouse xenografts; cited from earlier work.
The next series deals with IDO. The series is described as follows: Plasma kynurenine/tryptophan pharmacodynamics (HPLC). The format is in vivo, human. Here is the method:
(§1) Plasma kynurenine and tryptophan levels were measured via high-performance liquid chromatography at baseline and during weeks 1-4 of treatment using previously published methods. Humoral responses toward multiple cancer-testis antigens were analyzed by a proprietary whole protein microarray (Serametrix, Carlsbad, CA) in a 200-μL plasma aliquot, collected at blood draws at baseline and at week 5. Autoantibody titers were reported as relative fluorescence units using human anti-IgG reporter antibodies with blank and predetermined IgG antibody titer control spots using a Perkin Elmer fluorescence scanner.

The test system of another series is advanced solid tumors. As to the kind of experiment: Response evaluation by RECIST 1.1. The format is in vivo, human. On the procedure:
Overall response rate was determined via the criteria described by the RECIST 1.1 guidelines. Baseline evaluations were conducted within 14 days before start of therapy, with CT scans performed within 4 weeks before start of therapy. Patients were then reevaluated every 8 weeks with diagnostic CT scans. The best overall response achieved during study therapy was recorded for each patient. The response data presented herein underwent site radiology review. The duration of response was measured from the time criteria were met for complete or partial response until the first date that recurrent or progressive disease was documented.

The subject of a further series is C-reactive protein. The series is described as follows: C-reactive protein levels. The format is in vivo, human. The text has this:
Physical examinations, autoimmunity evaluations, complete blood counts, metabolic panels, and C-reactive protein levels were obtained at baseline and every 2 weeks. Pituitary function tests (thyroid-stimulating hormone, free T4, luteinizing hormone, follicular stimulating hormone, and adrenocortical hormone) and anti-nuclear autoantibody titers were obtained at baseline and every 4 weeks.

Series [2] concerns circulating T cell populations. The series is described as follows: T-cell flow cytometry panel on patient blood. The format is in vivo, human. The text has this: At weeks 1, 3, 5, and 7 of treatment, patient blood was collected into 3 heparinized 10-mL Vacutainer tubes. Samples underwent Ficoll separation and cryopreservation for subsequent analyses. A total of 16 patients across dose levels 4-10 had satisfactory samples collected at all 4 time points for multiparameter flow analyses (see Table 1 for definition of dose levels). Flow cytometry analyses using a T-cell panel (CCR6-FITC, CD45RO-PerCP-Cy5, CD45RA-BV421, HLADR-BV650, CD4-PE, CD25-PECy7, CD127-Alexa 647, CD3- BUV395, Live/Dead Aqua, CD8-BUV737) to determine changes in circulating levels of T-regulatory cells (CD4+CD25+CD127low), naïve (CD45RA+) versus memory (CCR6+/−CD45RO+) CD4 and CD8 T cells, and activated T-cell subsets (HLA-DR+) were carried out in the Moffitt Flow Cytometry Core on an LSRII with compensation beads and fluorescence minus one controls. Gating was done using fluorescence minus one thresholds, and analyses were done using FloJo X software. Mean percentages of the populations were calculated from single, live, CD3+-gated events and analyzed across the 4 time points for the entire group, with lower (dose levels 4-8) versus higher (dose levels 9-10) dose levels compared using ANOVA in Prism GraphPad. P levels of 0.05 indicated significance.
(In general: Flow cytometry measures light scatter and fluorescence of single cells or particles in a stream.)

Series [3] is described as follows: Plasma pharmacokinetics (LC-MS/MS, non-compartmental). The format is in vivo, human. On the procedure:
A validated liquid chromatography triple-quadrupole with tandem mass spectrometry method was used to determine levels of indoximod in plasma. The methods were validated per International Conference on Harmonization/Food and Drug Administration guidelines. Plasma samples were prepared for chromatographic injections by protein precipitation as described in Supplement 1.
Plasma concentration-time data for indoximod were analyzed by non-compartmental pharmacokinetic methods using Phoenix WinNonlin 6.3 (Pharsight Corp., Mountain View, CA). Data in the terminal, log-linear phase were analyzed by linear regression to estimate terminal elimination rate constant and half-life. These additional pharmacokinetic parameters were also determined: AUC0-48, AUC0-inf, Cmax, Tmax, terminal half-life (t1/2), apparent clearance, and apparent volume of distribution.

Series [4] deals with 30 different tumor-associated antigens. The series is described as follows: Autoantibody titers to tumor-associated antigens (Serametrix protein microarray). The format is in vivo, human. Particulars: week 5; of 40 patients evaluated; P < 0.05. Here is the method: as §1
On the set-up of series [5]: method as in PMID 17234791. To be noted: combined with cyclophosphamide; compared among forms of 1-methyl-tryptophan; cited from earlier work.

Consider `Cn1cc(CC(N)C(=O)O)c2ccccc21` (racemic) [1-methyl-DL-tryptophan], for which the “effect on tumor growth” value in series [1] was “delaying growth”.

On to `Cn1cc(C[C@@H](N)C(=O)O)c2ccccc21` [indoximod, 1-methyl-D-tryptophan], for which, in the series with IDO, the “effect on circulating kynurenine levels” value is listed as “lack of effect”. For the same molecule, the “patients with stable disease >6 months” value in the series with advanced solid tumors (of 48 patients) was 5. In addition, the single-agent antitumor activity entry in the series on advanced solid tumors (patients with advanced solid tumors) was “modest”. Moreover, in the series on advanced solid tumors (site radiologist assessment, RECIST 1.1), the best response result is listed as “stable disease”. The “C reactive protein (CRP) levels” value in the series with C-reactive protein (across multiple dose levels) was “increased”. Besides, in the series with C-reactive protein (week 3 of treatment, baseline 3.81 mg/dL, P = 0.02), the “mean level of C-reactive protein” value was 5.13 mg/dL. Besides, the “changes in T cell populations (Treg, naive/memory CD4 and CD8, activated subsets)” value in series [2] (baseline through week 7, group as a whole) is “did not identify any statistically significant changes”. In addition, the “dose-dependent changes in T cell populations” value in series [2] (higher dose levels versus lower dose levels) is “no detectable dose-dependent changes”. The molecule also showed a half-life in series [3] (human, plasma, po) of 630 min. For the same molecule, the Cmax in series [3] (human, plasma, 2000 mg twice/day oral) was ~12 µM. Moreover, in series [3] (oral), the “dose range with linear dose response of AUC and Cmax” value was “up to 800 mg once daily”; the “single doses with plateauing of peak serum levels” value was ≥ 1600 mg. Also, in series [3] (patients), the drug renally cleared was 20% and the oral bioavailability result is given as “good”. Moreover, the “time at which Cmax occurred” value in series [3] (plasma, oral) is 2.9 h. Further, the “anticipated therapeutic dose of 10 to 15 μM” value in series [3] (serum drug level with current dosing schedules) is on record as “reached”. Moreover, the “patients with significantly higher autoantibody titers than at baseline” value in series [4] stood at 12. In series [5], the “in vivo antitumor activity” value was “superior”.

These data come from publication PMC5008412, “A phase I study of indoximod in patients with advanced malignancies” (Oncotarget, 2016).
